{"source": "patent US20250057848A1", "about": "“GAL475 COMPOSITIONS AND METHODS OF USE THEREOF” (NEURIM PHARMACEUTICALS (1991) LTD., priority 2023, published 2025)", "key": {"[1]": {"assay": "28 day repeated oral dose with 14-day recovery in Beagle dogs (body weight gain, food consumption)", "type": "in vivo, Beagle dog", "details": "for decrease in food consumption / decrease in body weight gain: 7.5, 15, or 30 mg/kg/day oral; for decrease in food consumption: dosing phase; for decrease in body weight gain: dosing phase up to 28 days", "method": "Thirty-two (16/sex) dogs were randomly assigned to 4 groups and orally administered vehicle (2% (w/v) CMC-Na, 1% (v/v) Tween 80 in 0.1 M phosphate buffer at pH 7.4) or Gal-475*2HCl at 7.5, 15, or 30 mg/kg/day once daily for up to 28 days."}, "[2]": {"system": "al adrenoreceptor (non-selective)", "assay": "Receptor binding assay, % inhibition of radioligand binding, al adrenoreceptor (non-selective)", "details": "30 micromolar GAL475; antagonist radioligand", "method": "(§1) GAL475 (30 micromolar) was tested in multiple receptor binding assays. The binding was calculated as a % inhibition of the binding of a radioactively labelled ligand specific for each target.\n(§2) However, the potency of GAL 475 at these receptors was lower than 1 micromolar and therefore not considered to be pharmacologically interesting. […] GAL475 was subsequently tested for PAM activity at the human NTS1 (FAST-0330I) and NTS2 (FAST-0331I) receptors, at 100-50,000 nanomolar concentrations. Agonist activity of GAL475 is expressed as a percentage of the activity of the reference agonist (Neurotensin) at its EC100 (maximal response) concentration. Antagonist activity of GAL475 is expressed as a percentage of the inhibition of reference agonist activity at its EC80 […] concentration. The assays were conducted with recombinant cell lines."}, "[3]": {"assay": "Phase 1 single escalating oral dose study in healthy male volunteers (body weight, tolerability)", "type": "in vivo, human", "method": "The effects of an oral dose of GAL-475 (capsules of 450 mg) in 12 healthy male volunteers was tested in a Phase 1, randomized, placebo-controlled, double-blind, first in man single escalating dose study.\nThe study drug (GAL475) at 50, 150, 450 mg dosages, or placebo were administered on the morning of Day 1. Subjects fasted for 8 hours prior to the intake of study drug or placebo and for at least 4 hours following dosing.\nThe subject's body weight was measured on day −1 and at the follow up visit (day 7) using a validated balance. Body weight was recorded with 1 decimal."}, "human NTS1": {"molecular_target": "human NTS1 (Homo sapiens (Human), UniProt P30989)", "sequence (P30989 whole entry, the tested form may be a part)": "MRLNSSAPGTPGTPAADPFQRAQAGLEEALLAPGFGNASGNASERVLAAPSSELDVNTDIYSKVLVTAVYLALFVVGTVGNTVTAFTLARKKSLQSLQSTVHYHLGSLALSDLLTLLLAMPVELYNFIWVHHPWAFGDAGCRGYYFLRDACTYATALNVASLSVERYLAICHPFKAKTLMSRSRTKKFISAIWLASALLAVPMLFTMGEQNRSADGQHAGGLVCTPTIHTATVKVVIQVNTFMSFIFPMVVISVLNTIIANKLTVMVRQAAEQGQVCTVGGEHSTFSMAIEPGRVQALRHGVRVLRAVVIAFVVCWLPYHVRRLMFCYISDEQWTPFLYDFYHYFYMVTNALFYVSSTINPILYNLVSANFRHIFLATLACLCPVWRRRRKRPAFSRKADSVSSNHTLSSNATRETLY", "assay": "Positive allosteric modulator (PAM) activity at human NTS1 (FAST-0330I), recombinant CHO-K1-mt aequorin cells", "type": "cell-based", "details": "100-50,000 nM", "description": "as §2\n(§3) GAL475 (100-50,000 nM) was tested for positive allosteric modulator (PAM) activity at the human NTS1 (FAST-0330I) and NTS2 (FAST-0331I) receptors (Tables 2 and 3)."}, "[4]": {"assay": "28 days repeated oral dose with 14-days recovery in rats (body weight, food consumption, tolerability)", "type": "in vivo, rat", "details": "for overall body weight gain Day −1 to Day 28 compared to that of the controls: 80 mg/kg/day oral; for group mean body weight compared to the controls: >40 mg/kg/day oral, end of dosing phase (28 days)", "method": "One hundred and forty-two (71/sex) rats were randomly assigned to 4 groups and given vehicle [2% (w/v) CMC-Na, 1% (v/v) Tween 80 in 0.1 M phosphate buffer at pH 7.4±0.2] or Gal-475*2HCl at 20, 40 or 80 mg/kg/day once daily for 28 days by the oral gavage route."}, "5-HT2B(h)": {"molecular_target": "5-HT2B(h) (Homo sapiens (Human), UniProt P41595)", "sequence (P41595 whole entry, the tested form may be a part)": "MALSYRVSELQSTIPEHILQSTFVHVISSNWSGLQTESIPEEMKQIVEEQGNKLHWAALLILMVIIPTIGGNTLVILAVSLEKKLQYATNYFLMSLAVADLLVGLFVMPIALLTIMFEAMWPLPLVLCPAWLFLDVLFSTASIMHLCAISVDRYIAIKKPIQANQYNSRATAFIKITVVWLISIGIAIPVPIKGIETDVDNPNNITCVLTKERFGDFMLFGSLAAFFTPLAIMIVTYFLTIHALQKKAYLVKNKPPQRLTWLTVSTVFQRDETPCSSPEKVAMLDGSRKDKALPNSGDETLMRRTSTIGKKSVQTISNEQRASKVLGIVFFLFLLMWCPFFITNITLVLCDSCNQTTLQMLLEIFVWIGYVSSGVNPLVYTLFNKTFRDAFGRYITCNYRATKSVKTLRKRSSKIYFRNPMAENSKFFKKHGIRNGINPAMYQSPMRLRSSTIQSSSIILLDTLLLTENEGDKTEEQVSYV", "assay": "Receptor binding assay, % inhibition of radioligand binding, 5-HT2B(h)", "details": "30 micromolar GAL475; agonist radioligand; read-out: % inhibition of the binding of radioactively labelled ligand", "method": "as §1, §2"}, "human NTS2": {"molecular_target": "human NTS2 (Homo sapiens (Human), UniProt O95665)", "sequence (O95665 whole entry)": "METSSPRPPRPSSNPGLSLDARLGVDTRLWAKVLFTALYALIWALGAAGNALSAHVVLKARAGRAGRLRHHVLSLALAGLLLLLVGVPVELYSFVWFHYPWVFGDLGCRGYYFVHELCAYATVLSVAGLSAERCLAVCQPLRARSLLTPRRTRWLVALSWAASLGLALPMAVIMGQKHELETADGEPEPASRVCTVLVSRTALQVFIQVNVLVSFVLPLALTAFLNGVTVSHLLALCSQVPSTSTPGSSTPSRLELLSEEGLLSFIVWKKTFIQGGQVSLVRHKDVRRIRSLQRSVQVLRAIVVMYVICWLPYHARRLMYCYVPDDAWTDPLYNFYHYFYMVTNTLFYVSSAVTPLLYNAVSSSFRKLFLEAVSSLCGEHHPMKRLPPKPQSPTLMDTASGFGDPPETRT", "assay": "Positive allosteric modulator (PAM) activity at human NTS2 (FAST-0331I), recombinant CHO-K1-mt aequorin cells", "type": "cell-based", "details": "100-50,000 nM", "description": "as §2, §3"}, "5-HT5a(h)": {"molecular_target": "5-HT5a(h) (Homo sapiens (Human), UniProt P47898)", "sequence (P47898 whole entry, the tested form may be a part)": "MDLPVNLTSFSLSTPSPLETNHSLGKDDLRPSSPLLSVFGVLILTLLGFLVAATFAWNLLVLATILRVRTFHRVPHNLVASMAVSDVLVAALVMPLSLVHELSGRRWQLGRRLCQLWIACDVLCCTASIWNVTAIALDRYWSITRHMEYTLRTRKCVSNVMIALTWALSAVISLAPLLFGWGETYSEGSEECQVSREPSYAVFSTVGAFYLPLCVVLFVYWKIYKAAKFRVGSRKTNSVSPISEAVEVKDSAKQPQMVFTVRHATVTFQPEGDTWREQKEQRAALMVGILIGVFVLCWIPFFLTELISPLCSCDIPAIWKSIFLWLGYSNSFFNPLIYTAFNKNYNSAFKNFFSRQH", "assay": "Receptor binding assay, % inhibition of radioligand binding, 5-HT5a(h)", "details": "30 micromolar GAL475; agonist radioligand; read-out: % inhibition of the binding of radioactively labelled ligand", "method": "as §1, §2"}, "Na+channel (site 2)": {"system": "Na+channel (site 2)", "assay": "Receptor binding assay, % inhibition of radioligand binding, Na+channel (site 2)", "details": "30 micromolar GAL475; antagonist radioligand", "method": "as §1, §2"}, "5-HT7 (h)": {"molecular_target": "5-HT7 (h) (Homo sapiens (Human), UniProt P34969)", "sequence (P34969 whole entry, the tested form may be a part)": "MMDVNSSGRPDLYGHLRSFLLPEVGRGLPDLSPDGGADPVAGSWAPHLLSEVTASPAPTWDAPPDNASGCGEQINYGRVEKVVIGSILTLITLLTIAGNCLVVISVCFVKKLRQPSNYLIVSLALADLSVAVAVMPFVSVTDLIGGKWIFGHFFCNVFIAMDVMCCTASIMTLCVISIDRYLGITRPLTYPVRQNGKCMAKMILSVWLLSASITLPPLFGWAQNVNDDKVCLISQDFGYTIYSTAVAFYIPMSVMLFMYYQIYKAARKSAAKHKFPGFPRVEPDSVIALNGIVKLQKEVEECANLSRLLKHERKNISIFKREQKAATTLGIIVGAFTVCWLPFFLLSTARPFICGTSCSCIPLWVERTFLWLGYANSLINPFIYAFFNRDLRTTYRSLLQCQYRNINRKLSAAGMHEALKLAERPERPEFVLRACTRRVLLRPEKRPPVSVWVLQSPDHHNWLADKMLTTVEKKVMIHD", "assay": "Receptor binding assay, % inhibition of radioligand binding, 5-HT7 (h)", "details": "30 micromolar GAL475; agonist radioligand; read-out: % inhibition of the binding of radioactively labelled ligand", "method": "as §1, §2"}, "[5]": {"assay": "Acute gastric emptying (charcoal slurry) in rats", "type": "in vivo, Sprague-Dawley rat", "details": "3 mg/kg IV", "method": "Naive male Sprague-Dawley rats (239-297 g) were used to evaluate the effect on gastric emptying of a single dose of 3 mg/kg GAL-475 IV.\nRats were fasted 16-18 hours prior to the start of the experiment and then were given a bolus dose of either vehicle (1% tween-80 2% CMC) or GAL475 (3 mg/kg, IV) via the lateral tail vein. 5 minutes after dosing, rats were gavaged with a charcoal slurry (5 ml/kg, 10% charcoal in 2.5% Arabic gum from acacia tree) and then returned to their cages. 20 minutes after receiving the slurry, rats were euthanized using CO2. The stomachs were excised, weighed, emptied, washed and reweighed. Gastric content was calculated as the difference between full and empty weights. Increased gastric content was interpreted as a decrease in gastric emptying food retention)."}, "[6]": {"details": "450 mg single oral dose, day −1 to day 7"}, "[7]": {"details": "oral gavage once daily 28 days, 20, 40, or 80 mg/kg/day"}}, "data": [{"compound": "CCCNc1nc(NC)nc2c(NCC(C)(C)O)nc(NC)nc12.Cl.Cl", "note": "[Gal-475*2HCl, 1-(2,6-Bis-methylamino-8-propylamino-pyrimido[5,4-d]pyrimidin-4-ylamino)-2-methyl-propan-2-ol bis hydrochloride]", "values": [{"measurement": "decrease in food consumption", "setting": "[1]; females", "result": "≤ 98", "unit": "%"}, {"measurement": "decrease in body weight gain", "setting": "[1]; females", "result": "≤ 29.9", "unit": "%"}, {"measurement": "decrease in food consumption", "setting": "[1]; males", "result": "up to 81%"}, {"measurement": "decrease in body weight gain", "setting": "[1]; males", "result": "up to 22.7%"}, {"measurement": "body weight gain and food consumption during the recovery phase", "setting": "[1]; recovery phase", "result": "comparable with the control"}]}, {"compound": "CCCNc1nc(NC)nc2c(NCC(C)(C)O)nc(NC)nc12", "note": "[GAL475, 1-(2,6-Bis-methylamino-8-propylamino-pyrimido[5,4-d]pyrimidin-4-ylamino)-2-methyl-propan-2-ol]", "values": [{"measurement": "% inhibition of the binding of radioactively labelled ligand", "setting": "[2]", "result": 67.1, "unit": "%"}, {"measurement": "subjects with mild headaches on the day of capsule intake", "setting": "[3]; 50 mg single oral dose", "result": "2 of the 6"}, {"measurement": "subjects with mild headaches on the day of capsule intake", "setting": "[3]; 150 mg single oral dose", "result": "0 of the 6"}, {"measurement": "subjects with mild headaches on the day of capsule intake", "setting": "[3]; 450 mg single oral dose", "result": "5 of the 6"}, {"measurement": "change in body weight, average", "setting": "[3]; [6]", "result": -0.6, "unit": "kg"}, {"measurement": "change in body weight, range", "setting": "[3]; [6]", "result": "−0.1 to −1.6", "unit": "kg"}, {"measurement": "tolerability", "setting": "[3]; single oral dose 50, 150, 450 mg", "result": "well tolerated except for mild headaches"}, {"measurement": "decrease in body weight compared to vehicle", "setting": "[1]; 28 days", "result": 25, "unit": "%"}, {"measurement": "food consumption compared to vehicle", "setting": "[1]; 28 days", "result": "dramatic decrease"}, {"measurement": "Hill Coefficient", "setting": "human NTS1", "result": 11.62}, {"measurement": "% Activation Average at maximal concentration", "setting": "human NTS1; CHO-K1-mt aequorin", "result": 26.48, "unit": "%"}, {"measurement": "EC50", "setting": "human NTS1; CHO-K1-mt aequorin", "result": 355, "unit": "nM"}, {"measurement": "weight loss compared to vehicle", "setting": "[4]; 40 mg/Kg body weight per day, 28 days", "result": "meaningful weight loss"}, {"measurement": "body weight gain during recovery phase compared to controls", "setting": "[4]; 80 mg/kg/day, 2 weeks recovery phase", "result": "comparable or greater body weight gain"}, {"measurement": "group mean food consumption compared with control group", "setting": "[4]; both sexes, >40 mg/kg/day, dosing phase", "result": "significant reduced"}, {"measurement": "food intake at the end of recovery phase", "setting": "[4]; end of recovery phase", "result": "reversed"}, {"measurement": "overall body weight gain Day −1 to Day 28 compared to that of the controls", "setting": "[4]; females", "result": 79, "unit": "%"}, {"measurement": "group mean body weight compared to the controls", "setting": "[4]; females", "result": "−4.70", "unit": "%"}, {"measurement": "overall body weight gain Day −1 to Day 28 compared to that of the controls", "setting": "[4]; males", "result": 71, "unit": "%"}, {"measurement": "group mean body weight compared to the controls", "setting": "[4]; males", "result": "−7.35", "unit": "%"}, {"measurement": "test article-related adverse effects in clinical signs, food consumption, clinical pathology, or pathology", "setting": "[4]; [7]", "result": "no test article-related adverse effects"}, {"measurement": "tolerability", "setting": "[4]; [7]", "result": "well tolerated"}, {"measurement": "inhibition at 30 µM", "setting": "5-HT2B(h)", "result": 75, "unit": "%"}, {"measurement": "% Activation Average at maximal concentration", "setting": "human NTS2", "result": 0.21, "unit": "%"}, {"measurement": "inhibition at 30 µM", "setting": "5-HT5a(h)", "result": 50.6, "unit": "%"}, {"measurement": "% inhibition of the binding of radioactively labelled ligand", "setting": "Na+channel (site 2)", "result": 75.1, "unit": "%"}, {"measurement": "inhibition at 30 µM", "setting": "5-HT7 (h)", "result": 79, "unit": "%"}, {"measurement": "gastric emptying compared to vehicle", "setting": "[5]; p<0.05", "result": "significantly decreased"}, {"measurement": "gastric content retention higher compared to vehicle controls", "setting": "[5]; up to 25 minutes after administration", "result": "up to 105%"}]}]}
